Source: paper PMC12131194, “Rational design, synthesis, and evaluation of novel polypharmacological compounds targeting NaV1.5, KV1.5, and K2P channels for atrial fibrillation” (The Journal of Biological Chemistry, 2025)

Molecular target: T1, TREK-1 (Homo sapiens, UniProt O95069)
T1 construct: expressed in transfected cells; host or cells: Xenopus laevis oocytes injected with cRNA
T1 sequence (O95069 1-426): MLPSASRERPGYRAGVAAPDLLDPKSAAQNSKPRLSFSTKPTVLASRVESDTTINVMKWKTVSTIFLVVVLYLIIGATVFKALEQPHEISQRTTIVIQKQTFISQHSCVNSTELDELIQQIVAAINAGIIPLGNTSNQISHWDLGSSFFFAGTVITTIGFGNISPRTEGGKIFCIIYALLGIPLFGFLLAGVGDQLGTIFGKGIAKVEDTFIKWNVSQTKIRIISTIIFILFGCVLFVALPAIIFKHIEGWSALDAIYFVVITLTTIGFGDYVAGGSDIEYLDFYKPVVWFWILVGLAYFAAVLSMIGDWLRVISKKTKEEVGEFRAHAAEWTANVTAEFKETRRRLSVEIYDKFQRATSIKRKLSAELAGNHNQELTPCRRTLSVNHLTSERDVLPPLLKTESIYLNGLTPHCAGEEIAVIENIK
Assay: TEVC selectivity in X. laevis oocytes, TREK-1
Type: cell-based
Conditions: mean ± SD, n = 4, read-out: Effect on TREK-1 (inhibition; negative = activating)
Procedure: After confirming compound 6f simultaneous blockade of TASK-1, KV1.5, and NaV1.5, other cardiac channels (Kir2.1, TREK-1, TASK-4) were tested for selectivity at 100 μM (Fig. 8).
To obtain X. laevis oocytes, the frogs were anesthetized with 2 g/L of tricaine methanesulfonate, and the ovarian lobes were mechanically separated with forceps. The oocytes were incubated for 120 min in an OR2 solution containing in mM: NaCl 82.5, KCl 2, MgCl2 1, HEPES 5 (pH 7.5) supplemented with 2 mg/ml of collagenase II (Sigma) to remove residual connective tissue and obtain individual oocytes. […]
In order to overexpress the channel in the oocyte, each of the channels to be measured was subcloned (complementary DNA (cDNA); human TASK-1 (KCNK3, NM_002246), h KV1.5 (KCNA5, NM_002234), h NaV1.5 (hH1, M77235), TASK-4/TALK-2 (KCNK17, NM_AF358910), TREK-1 (KCNK2, AF004711) and Kir2.1 (KCNJ2, NM_017296) into pSGEM, pBF1 or pSP64 expression vector, and the cDNA was linearized with NheI or MluI. Complementary RNA (cRNA) was synthesized with the mMESSAGE mMACHINE-Kit (Ambion). The quality of the cRNA was tested on an agarose gel by electrophoresis. cRNA was quantified using a UV-Vis spectrophotometer (NanoDrop 2000). […] After this time, the overexpression of each channel was monitored through electrophysiology. […]

inhibition at 100 µM: -8.71%
Structure (SMILES): CCCCN(CCCC)CC(=O)Nc1ccc(OC)cc1OC [Compound 6f, 2-(dibutylamine)-N-(2,4-dimethoxiphenyl)acetamide]
